Measurements published in publication PMC8879660, “Characterizing the Physicochemical Properties of Two Weakly Basic Drugs and the Precipitates Obtained from Biorelevant Media” (Pharmaceutics, 2022).
In brackets after ≈: the same amount, converted by molar mass. Read-outs that look alike come from different tables or passages of the source.

How the values were obtained:
[1] = Equilibrium solubility of API in different media; type: physicochemical; details: 37 °C, 200 rpm
Procedure: To select an appropriate method for the preparation of precipitates, the equilibrium solubility of model drugs was firstly investigated in various media, including pH 1.0 HCl solution, pH 5.0, pH 6.5, and pH 8.0 phosphate buffer solution (PBS), fasted state simulated intestinal fluid (FaSSIF, Fa), and fed-state simulated intestinal fluid (FeSSIF, Fe). The excess sample was added to the medium, and the test of equilibrium solubility was performed with the stirring rate of 200 revolutions per minute (rpm) under 37 °C for 24 h. Sample concentration was detected every minute by Pion’s in situ fiber-optic UV dissolution monitoring system (Pion Scientific Instruments, Billerica, MA, USA), a real-time online detector. All measurements were performed in triplicate.

[2] = Equilibrium solubility / dissolution of precipitates and API in pH 6.5 FaSSIF buffer; type: physicochemical; details: FaSSIF buffer pH 6.5, 37 °C
Procedure: To estimate the solution properties of different crystal structures in near neutral or slightly acidic environments, the equilibrium solubility of various precipitates and API in the pH 6.5 FaSSIF buffer medium (FaB) was investigated. An excess sample was added to the medium, and the test of equilibrium solubility was performed with the stirring rate of 200 revolutions per minute (rpm) under 37 °C for 24 h. Sample concentration was detected every minute by Pion’s in situ fiber-optic UV dissolution monitoring system. All measurements were performed three times.

[3] = Intrinsic dissolution rate (disc method, Mini-IDR); type: physicochemical; details: same dissolution medium, 37 °C, 200 rpm
Procedure: The intrinsic dissolution rate (IDR) of compounds with different crystal structures was measured by the disc method based on the literature. About 10 mg of powder was loaded into the Mini-IDR compression system (Pion Inc., Billerica, MA, USA) and compressed at 100 psi (rivaroxaban) and 200 psi (Drug-A) for 1 min to obtain the miniaturized discs with a surface area of 0.071 cm^2. The discs were inserted into stirrer-die assembly and placed into flat-bottomed glass vials for dissolution analysis. At the start of the experiments, the magnetic stirrer was immediately switched on with the speed of 200 rpm, and then 10 mL of preheated (37 °C) dissolution media (FaSSIF buffer medium, FeSSIF buffer medium, FaSSIF medium and FeSSIF medium) were added into the vials at a constant temperature. The concentration was determined directly in the dissolution media every 30 s using an in situ UV probe for 2 h. All experiments were performed in triplicate, and the IDR was calculated with the following equation [30]:(1) IDR=V×dc/dt×1/A where V is the volume of medium in the glass vial; dc/dt is the slope of the straight line from the dissolution profile; A is the surface area of the disc.

[4] = Stirring PAMPA permeability assay of precipitates and API in different donor media; type: in vitro ADME
Procedure: In order to simulate the permeation of compounds in different crystal structures in the GI tract, the stirring PAMPA method (Pion Inc., Billerica, MA, USA) was used to assess the passive transcellular permeability. The donor and acceptor chambers representing the GI tract and systemic circulation were separated by the artificial membrane (PVDF, polyvinylidenfluoride, 0.45 μm, 0.78 cm^2). The membrane surface was coated with 20 μL of lipid, which was used to simulate the microenvironment of lipids in vivo. Then, 16 mL PBS/FaSSIF/FeSSIF medium with pH 5.0 was added into the donor chamber, and 16 mL sink buffer was added into the acceptor chamber. In order to simulate the redissolution progress of precipitate in the GI tract, a slight excess of crystalline powder was added into the donor chamber. Both chambers were stirred at 200 rpm at 37 °C, and the concentration of each chamber was detected by immersed UV-probes at 320 nm and 340 nm for rivaroxaban and Drug-A, respectively. The flux was defined as the amount of compound passing through the unit area perpendicular to its flow direction in unit time and was calculated by the following equation [31]:(2) J(t)=Ct2−Ct1/A(t2−t1)×V where J(t) is the flux of a compound; Ct is the concentration of compound at t; V is the solution volume of the donor chamber; A is the area of the artificial membrane. […]

[5] = stated in Materials, source not given; cited from earlier work

solubility at 24 h ([1]; FaSSIF, n = 3, read-out: Solubility of API, FaSSIF): 6.17 µg/mL (≈ 14.2 µM) | solubility at 24 h ([1]; FeSSIF, n = 3, read-out: Solubility of API, FeSSIF): 10.6 µg/mL (≈ 24.3 µM) | solubility at 24 h ([1]; pH 1.0 HCl solution, n = 3, read-out: Solubility of API, pH 1.0 HCl): 6.84 µg/mL (≈ 15.7 µM) | solubility at 24 h ([1]; pH 5.0 phosphate buffer solution (PBS), aqueous buffer, thermodynamic from solid, pH 5.0 PBS, n = 3, read-out: Solubility of API, pH 5.0 PBS): 4.85 µg/mL (≈ 11.1 µM) | solubility at 24 h ([1]; pH 6.5 phosphate buffer solution (PBS), pH 6.5 PBS, n = 3, read-out: Solubility of API, pH 6.5 PBS): 5.85 µg/mL (≈ 13.4 µM) | solubility at 24 h ([1]; pH 8.0 phosphate buffer solution (PBS), pH 8.0 PBS, n = 3, read-out: Solubility of API, pH 8.0 PBS): 5.87 µg/mL (≈ 13.5 µM) | Dissolved rate of precipitates compared with API [2]: higher than that of API | Difference in equilibrium solubility between API and precipitates obtained from biorelevant media ([2]; 24 h, precipitates from FaSSIF, 0.5 × FeSSIF, FeSSIF, 2 × FeSSIF): no statistical difference | Influence of crystal structure (API vs precipitates) on intrinsic dissolution rate [3]: significant influence | Permeability in donor chamber containing aqueous medium relative to donor chamber containing biorelevant medium ([4]; donor pH 5.0 PBS vs biorelevant medium, 37 °C, 200 rpm): about 1.92 fold
SMILES: O=C(NC[C@H]1CN(c2ccc(N3CCOCC3=O)cc2)C(=O)O1)c1ccc(Cl)s1 [Rivaroxaban]
Permeability of API compared with precipitates ([4]; FeSSIF in the donor chamber): larger than that of precipitates obtained from biorelevant media | log p [5]: 1.90 | pKa [5]: 13.6
